From patent publication US20260116868A1 (Arcus Biosciences, Inc., priority 2023, published 2026)

Key:
Cbl-b = biological target: T1, Cbl-b (Homo sapiens, UniProt Q13191); assay: Cbl-b probe displacement HTRF binding assay; details: 0.4 nM Cbl-b, 150 nM BODIPY probe
T1 construct: biotin (biotinylated protein)
Summary of the method: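 Compound competes with BODIPY probe (150 nM) for biotinylated Cbl-b (0.4 nM) in HEPES/NaCl/Triton/TCEP/BSA buffer; 60 min preincubation, 15 min with probe, room temperature. Tb-streptavidin HTRF read; % displacement vs DMSO and no-protein controls, IC50 from four-parameter fit.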

Jurkat cells = assay: IL-2 secretion assay in Jurkat cells activated with CD3/CD28 T Cell Activator; assay type: cell-based; details: Homo sapiens; Jurkat cells, CD3/CD28 T Cell Activator, 24 h, IL-2 AlphaLISA; read-out: IL-2 Secretion (EC50)
Procedure: Certain compounds were also evaluated in an IL-2 secretion assay. On the day of the assay, a 16 point, 1:2 master serial dilution of each compound was prepared in Opti-MEM to span a final concentration range of 10 μM to 300 pM. Assays were set up in CORNING® tissue culture-treated 384-well microplates containing 60 nL of each dilution. Jurkat cells grown in RPMI-1640 supplemented with 10% FBS, 1% Glutamax, and 1% Pen/Strep were collected, resuspended in Opti-MEM. 50,000 cells/well and added to the compound plates. After a short spin (1200 rpm for 1 min), the plates were incubated at 37° C. for 1 hour. The cells were activated by adding 15 μL of IMMUNOCULT™ Human CD3/CD28 T Cell Activator (STEMCELL Technologies) diluted in Opti-MEM. After 24 h of incubation at 37° C., aliquots of culture supernatants were transferred to OptiPlate-384 (PerkinElmer) microplates. The level of IL-2 secretion in the supernatants was then determined using the IL-2 (human) AlphaLISA Detection Kit (PerkinElmer) according to the manufacturer's recommendations. The AlphaLISA signal was measured using an EnVision plate reader (PerkinElmer). EC50 values were determined by fitting the data to a standard 4-parameter logistic equation. See Table 7 for data for select compounds (IL-2 Secretion (EC50)).

T1 sequence (Q13191 whole entry, species assumed): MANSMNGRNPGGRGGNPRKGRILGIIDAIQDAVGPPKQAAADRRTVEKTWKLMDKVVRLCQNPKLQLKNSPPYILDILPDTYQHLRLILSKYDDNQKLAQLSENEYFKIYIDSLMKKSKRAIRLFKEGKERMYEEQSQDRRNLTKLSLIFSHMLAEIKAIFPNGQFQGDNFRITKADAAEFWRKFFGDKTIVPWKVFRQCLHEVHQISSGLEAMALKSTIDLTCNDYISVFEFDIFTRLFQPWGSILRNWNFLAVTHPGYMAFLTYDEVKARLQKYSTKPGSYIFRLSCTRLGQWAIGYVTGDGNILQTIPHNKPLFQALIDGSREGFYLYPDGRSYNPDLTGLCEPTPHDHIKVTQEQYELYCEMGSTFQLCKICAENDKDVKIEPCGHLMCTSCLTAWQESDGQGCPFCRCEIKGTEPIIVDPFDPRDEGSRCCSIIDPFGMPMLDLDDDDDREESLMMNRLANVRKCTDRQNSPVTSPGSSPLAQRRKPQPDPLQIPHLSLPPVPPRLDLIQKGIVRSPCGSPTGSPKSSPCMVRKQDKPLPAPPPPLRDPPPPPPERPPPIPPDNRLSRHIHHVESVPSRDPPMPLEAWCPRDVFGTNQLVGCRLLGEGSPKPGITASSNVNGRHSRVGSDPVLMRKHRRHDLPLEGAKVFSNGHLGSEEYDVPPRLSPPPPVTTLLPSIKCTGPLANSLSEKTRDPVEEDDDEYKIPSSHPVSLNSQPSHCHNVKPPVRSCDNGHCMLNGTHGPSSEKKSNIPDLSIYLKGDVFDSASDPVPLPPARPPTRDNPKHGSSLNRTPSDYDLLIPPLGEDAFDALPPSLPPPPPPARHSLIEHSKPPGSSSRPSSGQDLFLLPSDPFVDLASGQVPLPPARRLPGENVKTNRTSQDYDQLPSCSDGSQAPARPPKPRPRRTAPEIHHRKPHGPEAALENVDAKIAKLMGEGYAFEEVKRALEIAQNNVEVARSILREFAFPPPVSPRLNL

IC50 (Cbl-b)	EC50 (Jurkat cells)	Compound
< 100 nM	< 100 nM	COC[C@H](C)NCc1cc(C(=O)Nc2cc(-c3ccc(F)cc3-c3nncn3C)cc(C3CC3)n2)c(=O)n(C2CC2)c1 [Example 18, N-{6-cyclopropyl-4-[4-fluoro-2-(4-methyl-4H-1,2,4-triazol-3-yl)phenyl]-2-pyridyl}-5-{[(S)-2-methoxy-1-methylethylamino]methyl}-1-cyclopropyl-2-oxo-1,2-dihydronicotinamide]
< 100 nM	100 to 1000 nM	COC(F)(F)CNCc1cc(C(=O)Nc2cc(-c3ccc(F)cc3-c3nncn3C)cc(C3CC3)n2)c(=O)n(C2CC2)c1 [Example 19, N-{6-cyclopropyl-4-[4-fluoro-2-(4-methyl-4H-1,2,4-triazol-3-yl)phenyl]-2-pyridyl}-1-cyclopropyl-5-[(2,2-difluoro-2-methoxyethylamino)methyl]-2-oxo-1,2-dihydronicotinamide]
< 100 nM	< 100 nM	CO[C@H](C)CNCc1cc(C(=O)Nc2cc(-c3ccc(F)cc3-c3nncn3C)cc(C3CC3)n2)c(=O)n(C2CC2)c1 [Example 20, N-{6-cyclopropyl-4-[4-fluoro-2-(4-methyl-4H-1,2,4-triazol-3-yl)phenyl]-2-pyridyl}-5-{[(R)-2-methoxypropylamino]methyl}-1-cyclopropyl-2-oxo-1,2-dihydronicotinamide]
< 100 nM	< 100 nM	COC[C@@H](C)NCc1cc(C(=O)Nc2cc(-c3ccc(F)cc3-c3nncn3C)cc(C3CC3)n2)c(=O)n(C2CC2)c1 [Example 21, N-{6-cyclopropyl-4-[4-fluoro-2-(4-methyl-4H-1,2,4-triazol-3-yl)phenyl]-2-pyridyl}-5-{[(R)-2-methoxy-1-methylethylamino]methyl}-1-cyclopropyl-2-oxo-1,2-dihydronicotinamide]
< 100 nM	100 to 1000 nM	CO[C@@H]1CCN(Cc2cc(C(=O)Nc3cc(-c4ccc(F)cc4-c4nncn4C)cc(C4CC4)n3)c(=O)n(C3CC3)c2)C1 [Example 22, N-{6-cyclopropyl-4-[4-fluoro-2-(4-methyl-4H-1,2,4-triazol-3-yl)phenyl]-2-pyridyl}-5-{[(R)-3-methoxy-1-pyrrolidinyl]methyl}-1-cyclopropyl-2-oxo-1,2-dihydronicotinamide]
< 100 nM	< 100 nM	CO[C@@H](C)[C@H](C)NCc1cc(C(=O)Nc2cc(-c3ccc(F)cc3-c3nncn3C)cc(C3CC3)n2)c(=O)n(C2CC2)c1 [Example 23, N-{6-cyclopropyl-4-[4-fluoro-2-(4-methyl-4H-1,2,4-triazol-3-yl)phenyl]-2-pyridyl}-5-{[(1S,2S)-2-methoxy-1-methylpropylamino]methyl}-1-cyclopropyl-2-oxo-1,2-dihydronicotinamide]
< 100 nM	< 100 nM	Cn1cnnc1-c1cc(F)ccc1-c1cc(NC(=O)c2cc(CNCC3(F)CCC3)cn(C3CC3)c2=O)nc(C2CC2)c1 [Example 24, N-{6-cyclopropyl-4-[4-fluoro-2-(4-methyl-4H-1,2,4-triazol-3-yl)phenyl]-2-pyridyl}-1-cyclopropyl-5-({[(1-fluorocyclobutyl)methyl]amino}methyl)-2-oxo-1,2-dihydronicotinamide]
< 100 nM	100 to 1000 nM	CO[C@H]1CCCN(Cc2cc(C(=O)Nc3cc(-c4ccc(F)cc4-c4nncn4C)cc(C4CC4)n3)c(=O)n(C3CC3)c2)C1 [Example 25, N-{6-cyclopropyl-4-[4-fluoro-2-(4-methyl-4H-1,2,4-triazol-3-yl)phenyl]-2-pyridyl}-5-{[(S)-3-methoxy-1-piperidyl]methyl}-1-cyclopropyl-2-oxo-1,2-dihydronicotinamide]
< 100 nM	100 to 1000 nM	COC1CN(Cc2cc(C(=O)Nc3cc(-c4ccc(F)cc4-c4nncn4C)cc(C4CC4)n3)c(=O)n(C3CC3)c2)C1 [Example 26, N-{6-cyclopropyl-4-[4-fluoro-2-(4-methyl-4H-1,2,4-triazol-3-yl)phenyl]-2-pyridyl}-1-cyclopropyl-5-[(3-methoxy-1-azetidinyl)methyl]-2-oxo-1,2-dihydronicotinamide]
100 to 1000 nM	> 5000 nM	Cn1cnnc1-c1cc(F)ccc1-c1cc(NC(=O)c2cc(-c3cc[nH]n3)cn(C3CC3)c2=O)nc(C2CC2)c1 [Example 27, N-{6-Cyclopropyl-4-[4-fluoro-2-(4-methyl-4H-1,2,4-triazol-3-yl)phenyl]-2-pyridyl}-1-cyclopropyl-2-oxo-5-(3-pyrazolyl)-1,2-dihydronicotinamide]
100 to 1000 nM	> 5000 nM	Cn1cnnc1-c1cc(F)ccc1-c1cc(NC(=O)c2cc(-c3cccc(N)c3)cn(C3CC3)c2=O)nc(C2CC2)c1 [Example 28, N-{6-Cyclopropyl-4-[4-fluoro-2-(4-methyl-4H-1,2,4-triazol-3-yl)phenyl]-2-pyridyl}-5-(m-aminophenyl)-1-cyclopropyl-2-oxo-1,2-dihydronicotinamide]
100 to 1000 nM	1000 to 5000 nM	Cn1cnnc1-c1cc(F)ccc1-c1cc(NC(=O)c2cc(C3CC3)cn(C3CC3)c2=O)nc(C2CC2)c1 [Example 29, N-{6-Cyclopropyl-4-[4-fluoro-2-(4-methyl-4H-1,2,4-triazol-3-yl)phenyl]-2-pyridyl}-1-cyclopropyl-5-cyclopropyl-2-oxo-1,2-dihydronicotinamide]
100 to 1000 nM	> 5000 nM	Cn1cnnc1-c1cc(F)ccc1-c1cc(NC(=O)c2cc(C3CCNC3)cn(C3CC3)c2=O)nc(C2CC2)c1 (stereo not drawn) [Example 30, N-{6-Cyclopropyl-4-[4-fluoro-2-(4-methyl-4H-1,2,4-triazol-3-yl)phenyl]-2-pyridyl}-1-cyclopropyl-2-oxo-5-(3-pyrrolidinyl)-1,2-dihydronicotinamide]
100 to 1000 nM	> 5000 nM	Cn1cnnc1-c1cc(F)ccc1-c1cc(NC(=O)c2cc(C3CCNC3)cn(CC3CC3)c2=O)nc(C2CC2)c1 (stereo not drawn) [Example 31, N-[6-cyclopropyl-4-[4-fluoro-2-(4-methyl-1,2,4-triazol-3-yl)phenyl]pyridin-2-yl]-1-(cyclopropylmethyl)-2-oxo-5-pyrrolidin-3-ylpyridine-3-carboxamide]
< 100 nM	1000 to 5000 nM	CN(C)Cc1c[nH]c(=O)c(C(=O)Nc2cc(-c3ccc(F)cc3-c3nncn3C)cc(C3CC3)n2)c1 [Example 32, N-{6-Cyclopropyl-4-[4-fluoro-2-(4-methyl-4H-1,2,4-triazol-3-yl)phenyl]-2-pyridyl}-5-[(dimethylamino)methyl]-2-oxo-1,2-dihydronicotinamide]
< 100 nM	100 to 1000 nM	CN(C)Cc1cc(C(=O)Nc2cc(-c3ccc(F)cc3-c3nncn3C)cc(C3CC3)n2)c(=O)n(C2CC2)c1 [Example 33, N-{6-Cyclopropyl-4-[4-fluoro-2-(4-methyl-4H-1,2,4-triazol-3-yl)phenyl]-2-pyridyl}-1-cyclopropyl-5-[(dimethylamino)methyl]-2-oxo-1,2-dihydronicotinamide]
< 100 nM	1000 to 5000 nM	C=CCn1cc(CN(C)C)cc(C(=O)Nc2cc(-c3ccc(F)cc3-c3nncn3C)cc(C3CC3)n2)c1=O [Example 34, N-{6-Cyclopropyl-4-[4-fluoro-2-(4-methyl-4H-1,2,4-triazol-3-yl)phenyl]-2-pyridyl}-1-allyl-5-[(dimethylamino)methyl]-2-oxo-1,2-dihydronicotinamide]
< 100 nM	100 to 1000 nM	C[C@H]1CCCN(Cc2cc(C(=O)Nc3cc(-c4ccc(C#N)cc4-c4nccn4C)cc(Cl)n3)c(=O)n(C3CC3)c2)C1 [Example 35, N-{6-chloro-4-[4-cyano-2-(1-methyl-2-imidazolyl)phenyl]-2-pyridyl}-5-{[(S)-3-methyl-1-piperidyl]methyl}-1-cyclopropyl-2-oxo-1,2-dihydronicotinamide]
100 to 1000 nM	1000 to 5000 nM	CN1C[C@@H]2C[C@H]1CN2Cc1cc(C(=O)Nc2cc(-c3ccc(C#N)cc3-c3nccn3C)cc(C3CC3)n2)c(=O)n(C2CC2)c1 [Example 38, N-{4-[4-cyano-2-(1-methyl-2-imidazolyl)phenyl]-6-cyclopropyl-2-pyridyl}-5-({(1S,4S)-5-methyl-2,5-diazabicyclo[2.2.1]hept-2-yl}methyl)-1-cyclopropyl-2-oxo-1,2-dihydronicotinamide]
< 100 nM	< 100 nM	Cn1ccnc1-c1cc(C#N)ccc1-c1cc(NC(=O)c2cc(CNC3(C)CCC3)cn(C3CC3)c2=O)nc(C2CC2)c1 [Example 39, N-{4-[4-cyano-2-(1-methyl-2-imidazolyl)phenyl]-6-cyclopropyl-2-pyridyl}-1-cyclopropyl-5-[(1-methylcyclobutylamino)methyl]-2-oxo-1,2-dihydronicotinamide]
< 100 nM	100 to 1000 nM	Cn1ccnc1-c1cc(C#N)ccc1-c1cc(NC(=O)c2cc(CNCCOC(F)(F)F)cn(C3CC3)c2=O)nc(C2CC2)c1 [Example 40, N-{4-[4-cyano-2-(1-methyl-2-imidazolyl)phenyl]-6-cyclopropyl-2-pyridyl}-1-cyclopropyl-2-oxo-5-[(2-trifluoromethoxyethylamino)methyl]-1,2-dihydronicotinamide]
